# Values quoted from earlier work as cited in patent publication US20020172713A1, “Micron sized bicarbonate particles and slurrys containing the same” (Church & Dwight, Co., Inc., priority 2001, published 2002).
# Where two headings read alike, the source gives them in different places.
# Conditions: prior art particles, dilution of about 70% by weight slurry with additional water
smiles,measurement,setting,value
O=C([O-])O.[Na+] [sodium bicarbonate],alkali metal bicarbonate particles dissolved in dilution,10° C.,7%
same,alkali metal bicarbonate particles dissolved in dilution,22° C.,8.5%
